The record followed here is patent US10532106B2 (priority 2014, dated 2020).

The assay deals with T1, MT1-MMP hemopexin domain (Homo sapiens, UniProt P50281).
T1 construct: residues Cys319-Gly511 from the human gene; His6 (N); made in house; host or cells: HEK293 (transient), pEXPR-IBA42 vector
Briefly: Competition assay using fluorescence polarisation. The format is binding. As to conditions: for Kd: read-out: Kd. The source says:
Here, a pre-formed complex of PEX with the fluorescent PEX-binding tracer is titrated with free, non-fluoresceinated bicyclic peptide. Since all 17-69-based peptides are expected to bind at the same site, the titrant will displace the fluorescent tracer from PEX. Dissociation of the complex can be measured quantitatively, and the Kd of the competitor (titrant) to the target protein determined. The advantage of the competition method is that the affinities of non-fluoresceinated bicyclic peptides can be determined accurately and rapidly.
Subsequently, the non-fluorescent competitor bicyclic peptide (usually just the bicycle core sequence) is titrated, such that it displaces the fluorescent tracer from the target protein. The displacement of the tracer is measured and associated with a drop in fluorescence polarisation. The drop in fluorescence polarisation is proportional to the fraction of target protein bound with the non-fluorescent titrant, and thus is a measure of the affinity of titrant to target protein.
The raw data is fit to the analytical solution of the cubic equation that describes the equilibria between fluorescent tracer, titrant, and binding protein. The fit requires the value of the affinity of fluorescent tracer to the target protein, which can be determined separately by direct binding FP experiments (see previous section).

Where [1] appears, read: Table 8, substitutions at position 4.
Setting [2] is: Table 12, molecules selected for plasma stability assessment.
The mark [3] stands for this setting: Table 9, tolerated substitutions at positions 9 and 11.

Where two headings read alike, the source gives them in different places. Numbered stars: 1 amine (or outer) side, 2 acyl side, 3 side chain; on linkers, the order of the positions; unused ones are H or OH. Bridge positions count the residues as written; N and C are the ends. Square brackets hold non-standard residues; d marks the D form. Peptide text beside a SMILES is read from it. Phe(4-Br) = N[C@@H](Cc1ccc(Br)cc1)C(=O)O; 1Nal = N[C@@H](Cc1cccc2ccccc12)C(=O)O; 2Nal = N[C@@H](Cc1ccc2ccccc2c1)C(=O)O; TBMB = c1c(C[*:1])cc(C[*:3])cc1C[*:2]; Tle = CC(C)(C)[C@H](N)C(=O)O; Sar = CNCC(=O)O

In the case of `CC[C@H](C)[C@@H]1NC(=O)[C@H](CC(=O)O)NC(=O)[C@H](Cc2ccc(O)cc2)NC(=O)[C@H](Cc2ccccc2)NC(=O)[C@H](CC(=O)O)NC(=O)[C@H](CCC(=O)O)NC(=O)[C@@H]2CSCc3cc(cc(c3)CSC[C@@H](C(=O)N[C@@H](C)C(N)=O)NC1=O)CSC[C@H](NC(=O)[C@H](C)N)C(=O)N[C@@H](C(C)C)C(=O)N[C@@H](CC(N)=O)C(=O)N[C@@H](CCC(=O)O)C(=O)N[C@@H](Cc1ccccc1)C(=O)NCC(=O)N2` [17-69-03-N001, A-(17-69-03)-A] (H-ACVNEFGCEDFYDICA-NH2; linker 2-8-15 via TBMB), the Kd (Table 2, FP method Competition, tracer A-(17-69-07)-A-Sar6-K(Fluorescein)) was found to be 16.7 nM. `CC[C@H](C)[C@@H]1NC(=O)[C@H](CC(=O)O)NC(=O)[C@H](Cc2ccc(O)cc2)NC(=O)[C@H](Cc2ccccc2)NC(=O)[C@H](CC(=O)O)NC(=O)[C@H](CCC(=O)O)NC(=O)[C@@H]2CSCc3cc(cc(c3)CSC[C@H](NC(C)=O)C(=O)N[C@@H](Cc3ccc(O)cc3)C(=O)N[C@@H](CC(N)=O)C(=O)N[C@@H](CCC(=O)O)C(=O)N[C@@H](Cc3ccc4ccccc4c3)C(=O)NCC(=O)N2)CSC[C@@H](C(N)=O)NC1=O` [17-69-07-N068, Ac-(17-69-07) 2NAl4] (Ac-CYNE[2Nal]GCEDFYDIC-NH2; linker 1-7-14 via TBMB): under setting [1], the Kd is 0.7 ± 0.19 nM. Regarding `CC(=O)NCC(=O)N(C)CC(=O)N(C)CC(=O)N(C)CC(=O)N(C)CC(=O)N(C)CC(=O)N(C)CC(=O)N(C)CC(=O)N(C)CC(=O)N(C)CC(=O)N(C)CC(=O)N[C@@H](C)C(=O)N[C@H]1CSCc2cc3cc(c2)CSC[C@H](NC(=O)[C@@H](C)NC(=O)[C@H](Cc2cccc4ccccc24)NC(=O)[C@H](CCC(=O)O)NC(=O)[C@H](CC(N)=O)NC(=O)[C@@H](C)NC1=O)C(=O)N[C@@H](CCC(=O)O)C(=O)N[C@@H](CC(=O)O)C(=O)N[C@@H](Cc1ccccc1)C(=O)N[C@@H](Cc1ccc(O)cc1)C(=O)N[C@@H](CC(=O)O)C(=O)N[C@@H](C(C)(C)C)C(=O)N[C@H](C(N)=O)CSC3` [17-69-07-N239, Ac-G-Sar10-A-(17-69-07) D-Ala1 1Nal4 D-Ala5 tBuGly11] (Ac-G[Sar][Sar][Sar][Sar][Sar][Sar][Sar][Sar][Sar][Sar]AC[dA]NE[1Nal][dA]CEDFYD[Tle]C-NH2; linker 13-19-26 via TBMB), the “potency / activity toward MT1-MMP, in words” value is “potency which is superior to wildtype”. The Kd (Table 11, G-Sar10-A addition) is 0.94 ± 0.08 nM. Consider `CC[C@H](C)[C@@H]1NC(=O)[C@H](CC(=O)O)NC(=O)[C@H](Cc2ccc(O)cc2)NC(=O)[C@H](Cc2ccccc2)NC(=O)[C@H](CC(=O)O)NC(=O)[C@H](CCC(=O)O)NC(=O)[C@@H]2CSCc3cc(cc(c3)CSC[C@@H](C(=O)N[C@@H](C)C(N)=O)NC1=O)CSC[C@H](NC(=O)[C@H](C)N)C(=O)N[C@@H](Cc1ccc(O)cc1)C(=O)N[C@@H](CC(N)=O)C(=O)N[C@@H](CCC(=O)O)C(=O)N[C@@H](Cc1ccccc1)C(=O)NCC(=O)N2` [17-69-07-N001, A-(17-69-07)-A], for which the Kd (Table 3, Competition, tracer A-(17-69-12)-A-Sar6-K(Fluorescein)) worked out at 1.65 ± 0.29 nM.

Regarding `C[C@H](NC(=O)CN(C)C(=O)CN(C)C(=O)CN(C)C(=O)CN(C)C(=O)CN(C)C(=O)CN(C)C(=O)CN(C)C(=O)CN(C)C(=O)CN(C)C(=O)CN(C)C(=O)CN)C(=O)N[C@H]1CSCc2cc3cc(c2)CSC[C@H](NC(=O)[C@@H](C)NC(=O)[C@H](Cc2cccc4ccccc24)NC(=O)[C@H](CCC(=O)O)NC(=O)[C@H](CC(N)=O)NC(=O)[C@@H](C)NC1=O)C(=O)N[C@@H](CCC(=O)O)C(=O)N[C@@H](CC(=O)O)C(=O)N[C@@H](Cc1ccccc1)C(=O)N[C@@H](Cc1ccc(O)cc1)C(=O)N[C@@H](CC(=O)O)C(=O)N[C@@H](C(C)(C)C)C(=O)N[C@H](C(N)=O)CSC3` [17-69-07-N231, G-Sar10-A-(17-69-07) D-Ala1 1Nal4 D-Ala5 tBuGly11] (H-G[Sar][Sar][Sar][Sar][Sar][Sar][Sar][Sar][Sar][Sar]AC[dA]NE[1Nal][dA]CEDFYD[Tle]C-NH2; linker 13-19-26 via TBMB), the Kd under setting [2] was determined as 1.07 ± 0.28 nM. As for `C[C@H](NC(=O)CN(C)C(=O)CN(C)C(=O)CN(C)C(=O)CN(C)C(=O)CN(C)C(=O)CN(C)C(=O)CN(C)C(=O)CN(C)C(=O)CN(C)C(=O)CN(C)C(=O)CN)C(=O)N[C@H]1CSCc2cc3cc(c2)CSC[C@H](NC(=O)[C@@H](C)NC(=O)[C@H](Cc2cccc4ccccc24)NC(=O)[C@H](CCC(=O)O)NC(=O)[C@H](CC(N)=O)NC(=O)[C@@H](C)NC1=O)C(=O)N[C@@H](CCC(=O)O)C(=O)N[C@@H](CC(=O)O)C(=O)N[C@@H](Cc1ccccc1)C(=O)N[C@@H](Cc1ccc(Br)cc1)C(=O)N[C@@H](CC(=O)O)C(=O)N[C@@H](C(C)(C)C)C(=O)N[C@H](C(N)=O)CSC3` [17-69-07-N244, G-Sar10-A-(17-69-07) D-Ala1 1Nal4 D-Ala5 4BrPhe9 tBuGly11] (H-G[Sar][Sar][Sar][Sar][Sar][Sar][Sar][Sar][Sar][Sar]AC[dA]NE[1Nal][dA]CEDF[Phe(4-Br)]D[Tle]C-NH2; linker 13-19-26 via TBMB), the “potency / activity toward MT1-MMP, in words” value is recorded as “potency which is superior to wildtype”. For the same compound, the Kd under setting [2] worked out at 0.45 ± 0.19 nM. As for `CC[C@H](C)[C@@H]1NC(=O)[C@H](CC(=O)O)NC(=O)[C@H](Cc2ccc(O)cc2)NC(=O)[C@H](Cc2ccccc2)NC(=O)[C@H](CC(=O)O)NC(=O)[C@H](CCC(=O)O)NC(=O)[C@@H]2CSCc3cc(cc(c3)CSC[C@H](NC(C)=O)C(=O)N[C@@H](Cc3ccc(O)cc3)C(=O)N[C@@H](CC(N)=O)C(=O)N[C@@H](CCC(=O)O)C(=O)N[C@@H](Cc3ccc(Cl)c(Cl)c3)C(=O)NCC(=O)N2)CSC[C@@H](C(N)=O)NC1=O` [17-69-07-N137, Ac-(17-69-07) 3,4-DCPhe4], under setting [1], the Kd was 1.85 ± 2.45 nM. For `CC[C@H](C)[C@@H]1NC(=O)[C@H](CC(=O)O)NC(=O)[C@H](Cc2ccc(O)cc2)NC(=O)[C@H](Cc2ccccc2)NC(=O)[C@H](CC(=O)O)NC(=O)[C@H](CCC(=O)O)NC(=O)[C@@H]2CSCc3cc(cc(c3)CSC[C@H](NC(C)=O)C(=O)N[C@@H](Cc3ccc(O)cc3)C(=O)N[C@@H](CC(N)=O)C(=O)N[C@@H](CCC(=O)O)C(=O)N[C@@H](C(C)(C)C)C(=O)NCC(=O)N2)CSC[C@@H](C(N)=O)NC1=O` [17-69-07-N072, Ac-(17-69-07) tBuGly4] (Ac-CYNE[Tle]GCEDFYDIC-NH2; linker 1-7-14 via TBMB), under setting [1], the Kd was > 5000 nM. For the compound `CC(=O)N[C@H]1CSCc2cc3cc(c2)CSC[C@H](NC(=O)CNC(=O)[C@H](Cc2ccccc2)NC(=O)[C@H](CCC(=O)O)NC(=O)[C@H](CC(N)=O)NC(=O)[C@H](Cc2ccc(O)cc2)NC1=O)C(=O)N[C@@H](CCC(=O)O)C(=O)N[C@@H](CC(=O)O)C(=O)N[C@@H](Cc1ccccc1)C(=O)N[C@@H](Cc1ccc(O)cc1)C(=O)N[C@@H](CC(=O)O)C(=O)N[C@@H](C(C)(C)C)C(=O)N[C@H](C(N)=O)CSC3` [17-69-07-N100, Ac-(17-69-07) tBuGly11] (Ac-CYNEFGCEDFYD[Tle]C-NH2; linker 1-7-14 via TBMB), the Kd under setting [3] came out at 1.56 ± 1.14 nM. In the case of `CC[C@@H](C)[C@H]1NC(=O)[C@@H](CC(=O)O)NC(=O)[C@@H](Cc2ccc(O)cc2)NC(=O)[C@@H](Cc2ccccc2)NC(=O)[C@@H](CC(=O)O)NC(=O)[C@@H](CCC(=O)O)NC(=O)[C@H]2CSCc3cc(cc(c3)CSC[C@@H](NC(=O)[C@@H](C)NC(=O)CN3CCN(CC(=O)O)CCN(CC(=O)O)CCN(CC(=O)O)CC3)C(=O)N[C@H](Cc3ccc(O)cc3)C(=O)N[C@H](CC(N)=O)C(=O)N[C@H](CCC(=O)O)C(=O)N[C@H](Cc3ccccc3)C(=O)NCC(=O)N2)CSC[C@H](C(N)=O)NC1=O` [17-69-07-N246, DOTA-A-(17-69-07) All D Amino Acids], the “potency / activity toward MT1-MMP, in words” value is given as “lacks any activity toward MT1-MMP”. In addition, the Kd (Table 15, DOTA-linked peptides) is > 5000 nM. For the compound `CC(=O)NCC(=O)N(C)CC(=O)N(C)CC(=O)N(C)CC(=O)N(C)CC(=O)N(C)CC(=O)N(C)CC(=O)N(C)CC(=O)N(C)CC(=O)N(C)CC(=O)N(C)CC(=O)N[C@@H](C)C(=O)N[C@H]1CSCc2cc3cc(c2)CSC[C@H](NC(=O)[C@@H](C)NC(=O)[C@H](Cc2cccc4ccccc24)NC(=O)[C@H](CCC(=O)O)NC(=O)[C@H](CC(N)=O)NC(=O)[C@@H](C)NC1=O)C(=O)N[C@@H](CCC(=O)O)C(=O)N[C@@H](CC(=O)O)C(=O)N[C@@H](Cc1ccccc1)C(=O)N[C@@H](Cc1ccc(Br)cc1)C(=O)N[C@@H](CC(=O)O)C(=O)N[C@@H](C(C)(C)C)C(=O)N[C@H](C(N)=O)CSC3` [17-69-07-N255, Ac-G-Sar10-A-(17-69-07) D-Ala1 1Nal4 D-Ala5 4BrPhe9 tBuGly11] (Ac-G[Sar][Sar][Sar][Sar][Sar][Sar][Sar][Sar][Sar][Sar]AC[dA]NE[1Nal][dA]CEDF[Phe(4-Br)]D[Tle]C-NH2; linker 13-19-26 via TBMB), the “potency / activity toward MT1-MMP, in words” value was “potency which is superior to wildtype”. Further, for the setting “Table 11, G-Sar10-A addition”, the Kd worked out at 0.3 nM.

As for `CC[C@H](C)[C@@H]1NC(=O)[C@H](CC(=O)O)NC(=O)[C@H](Cc2ccc(Br)cc2)NC(=O)[C@H](Cc2ccccc2)NC(=O)[C@H](CC(=O)O)NC(=O)[C@H](CCC(=O)O)NC(=O)[C@@H]2CSCc3cc(cc(c3)CSC[C@H](NC(C)=O)C(=O)N[C@@H](Cc3ccc(O)cc3)C(=O)N[C@@H](CC(N)=O)C(=O)N[C@@H](CCC(=O)O)C(=O)N[C@@H](Cc3ccccc3)C(=O)NCC(=O)N2)CSC[C@@H](C(N)=O)NC1=O` [17-69-07-N130, Ac-(17-69-07) 4BrPhe9] (Ac-CYNEFGCEDF[Phe(4-Br)]DIC-NH2; linker 1-7-14 via TBMB), the Kd under setting [3] turned out to be 2.45 ± 1.08 nM.

For orientation: Kd means the constant that tells how readily two partners part at equilibrium.
